# According to patent publication US6846803B1, “Antagonists specific for the corticotropin-releasing factor receptor type 2 (CRFR2)” (priority 1998, dated 2005):
# Where two headings read alike, the source gives them in different places. Residues, ends and D or L forms follow the SMILES beside them.
# T1: rCRFR1 (Rattus norvegicus, UniProt P35353)
# T1 construct: expressed in transfected cells; host or cells: HEK 293 cells, stably transfected (HEK-rCRFR1)
# T1 sequence (P35353 24-415): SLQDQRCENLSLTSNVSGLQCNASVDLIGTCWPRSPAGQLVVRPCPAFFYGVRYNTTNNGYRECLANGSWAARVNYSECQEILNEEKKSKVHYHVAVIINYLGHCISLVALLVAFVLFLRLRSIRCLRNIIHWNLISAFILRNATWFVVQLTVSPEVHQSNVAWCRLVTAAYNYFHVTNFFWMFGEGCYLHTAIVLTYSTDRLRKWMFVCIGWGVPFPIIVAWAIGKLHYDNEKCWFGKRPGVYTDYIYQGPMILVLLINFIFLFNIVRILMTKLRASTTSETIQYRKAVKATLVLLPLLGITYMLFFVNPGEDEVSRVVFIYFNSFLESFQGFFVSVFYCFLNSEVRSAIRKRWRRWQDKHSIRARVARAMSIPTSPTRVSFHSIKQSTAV
# T2: rat CRF receptor, type 1 (rCRFR1) (rat, UniProt P35353 24-415)
# T2 sequence (looked up): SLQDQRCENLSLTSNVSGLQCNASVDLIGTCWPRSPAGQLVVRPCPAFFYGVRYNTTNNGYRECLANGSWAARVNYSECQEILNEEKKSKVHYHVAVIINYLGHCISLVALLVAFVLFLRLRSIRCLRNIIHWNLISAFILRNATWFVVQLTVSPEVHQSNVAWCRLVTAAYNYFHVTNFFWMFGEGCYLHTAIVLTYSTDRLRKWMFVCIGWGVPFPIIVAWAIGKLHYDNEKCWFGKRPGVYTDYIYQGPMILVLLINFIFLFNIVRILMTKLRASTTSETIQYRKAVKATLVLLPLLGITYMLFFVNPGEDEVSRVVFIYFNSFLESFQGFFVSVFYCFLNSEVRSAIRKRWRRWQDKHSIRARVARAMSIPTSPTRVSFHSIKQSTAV
# Key:
# rCRFR1 [1] = molecular target: T1, rCRFR1; test: cAMP stimulation / inhibition of oCRF-stimulated cAMP production in HEK-rCRFR1 cells; format: cell-based; conditions: for HEK-rCRFR1 cells rel. pot. (relative potency): oCRF alone = 1.00; for Emax: read-out: HEK-rCRFR1 cells rel. IA (relative intrinsic activity)
# Method: (§1) HEK-rCRFR1 cells or HEK-mCRFR2β cells were incubated with different CRF agonists in the presence or absence of 1 μM or 10 nM antagonist, or CRF antagonist (c=1 μM) alone. After removal of the medium, cells were lyzed with aqueous 6% trichloroacetic acid (5 min, 100° C.) (Rühmann, A., A. K. E. Köpke, F. M. Dautzenberg, and J. Spiess, Proc. Natl. Acad. Sci. USA 93: 10609-10613, 1996). The cell lysates were stored at −70° C. until assayed with a RIA kit (Amersham, Little Chalfont). […] Statistical significance was determined across groups with ANOVA, and significant differences between groups were determined by post hoc comparison using the Dunn test.
# (§2) Intrinsic activities were measured at peptide concentrations generating maximal formation of cAMP in HEK-rCRFR1 or HEK-mCRFR2β cells.
# mCRFR2β [2] = molecular target: T3, mCRFR2β (Mus musculus, UniProt Q60748); test: Displacement of [^125I-Tyr^0]Svg from membranes of HEK-mCRFR2β cells; format: binding; conditions: for Selectivity: Kd(rCRFR1)(peptide)/Kd(rCRFR1)(astressin) × Kd(mCRFR2β)(astressin)/Kd(mCRFR2β)(peptide)
# T3 construct: expressed in transfected cells; host or cells: HEK 293 cells, stably transfected (HEK-mCRFR2β); membrane homogenates
# Method: (§3) Binding assays were performed in 96-well MultiScreen plates (Millipore, Eschborn, Germany) with GF/B filters (pore size 1.0 μm). […] After incubation (60 min, 23° C.), membrane suspension was aspirated through the plate, followed by two washes with assay buffer (0.2 ml, 23°). Radioactivity of the punched filters was measured with a 1470 WIZARD automatic gamma counter (Berthold, Hannover). […] Statistical analysis was performed with ANOVA, and significant differences between groups were determined by post hoc comparison using the Dunn test.
# (§4) Membrane homogenates of human embryonic kidney (HEK) 293 cells stably transfected with cDNA coding for rat CRF receptor, type 1 (rCRFR1) or mouse CRF receptor, type 2β (mCRFR2β) were prepared according to standard protocols (see, e.g., Sambrook et al., Molecular Cloning: A Laboratory Manual, 2nd. Edition, Cold Spring Habor Laboratory Press, Cold Spring Habor, N.Y., 1989; Ausubel et al., Current Protocols in Molecular Biology, Green Publishing Associates and Wiley Interscience, NY, 1989).
# mCRFR2β [3] = molecular target: T3, mCRFR2β; test: cAMP stimulation / inhibition of Svg-stimulated cAMP production in HEK-mCRFR2β cells; format: cell-based
# Method: as §1, §2
# Target sequence in this assay (Q60748 1-431 isoform Q60748-2): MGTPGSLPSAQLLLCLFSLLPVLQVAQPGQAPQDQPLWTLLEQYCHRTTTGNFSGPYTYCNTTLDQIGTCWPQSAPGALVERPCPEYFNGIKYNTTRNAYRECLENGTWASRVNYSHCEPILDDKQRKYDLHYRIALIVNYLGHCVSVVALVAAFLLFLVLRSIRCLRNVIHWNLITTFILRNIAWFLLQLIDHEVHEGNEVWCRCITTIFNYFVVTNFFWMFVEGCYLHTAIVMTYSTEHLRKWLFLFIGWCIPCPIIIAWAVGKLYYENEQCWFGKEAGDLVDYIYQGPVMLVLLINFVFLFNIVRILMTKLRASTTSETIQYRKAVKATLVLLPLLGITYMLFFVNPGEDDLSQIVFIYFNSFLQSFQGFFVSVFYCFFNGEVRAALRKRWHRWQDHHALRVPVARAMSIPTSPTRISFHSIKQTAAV
# rCRFR1 [4] = molecular target: T1, rCRFR1; test: Displacement of [^125I-Tyr^0]oCRF from membranes of HEK-rCRFR1 cells; format: binding
# Method: as §3, §4
# [5] = molecular target: mouse CRF receptor, type 2β (mCRFR2β) (mouse) (UniProt Q60748); test: Kd(rCRFR1)/Kd(mCRFR2β) of the peptide normalised to that of astressin; radioligand displacement
# [6] = molecular target: mouse CRF receptor, type 2β (mCRFR2β) (mouse) (UniProt Q60748); test: displacement of [125I-Tyr0]Svg from HEK-mCRFR2β membranes
# [7] = molecular target: T2, rat CRF receptor, type 1 (rCRFR1); test: cell-based or functional assay
# [8] = molecular target: mouse CRF receptor, type 2β (mCRFR2β) (mouse) (UniProt Q60748); test: radioligand binding to membranes of HEK-mCRFR2β cells, displaced by Svg
# [9] = Table 4, 1 μM antagonist, cAMP production stimulated by 1 nM oCRF
molecule,measurement,setting,value
"CC[C@H](C)[C@H](NC(=O)[C@@H](NC(=O)[C@H](CC(=O)O)NC(=O)[C@H](CC(C)C)NC(=O)[C@H](CC(C)C)NC(=O)[C@H](CC(C)C)NC(=O)[C@H](CCCNC(=N)N)NC(=O)[C@H](CC(N)=O)NC(=O)[C@H](CC(N)=O)NC(=O)[C@H](C)NC(=O)[C@H](C)NC(=O)[C@H](CCC(N)=O)NC(=O)[C@H](CCC(N)=O)NC(=O)[C@H](CCCCN)NC(=O)[C@H](CCC(=O)O)NC(=O)[C@H](CCCCN)NC(=O)[C@H](CCC(=O)O)NC(=O)[C@H](CCC(N)=O)NC(=O)[C@H](CCCCN)NC(=O)[C@H](CCC(=O)O)NC(=O)[C@@H](NC(=O)[C@H](CCC(=O)O)NC(=O)[C@@H](NC(=O)[C@H](CCSC)NC(=O)[C@H](CCCCN)NC(=O)[C@H](CCCNC(=N)N)NC(=O)[C@H](CC(C)C)NC(=O)[C@H](CC(C)C)NC(=O)[C@@H](N)Cc1ccc(O)cc1)[C@@H](C)CC)[C@@H](C)CC)[C@@H](C)O)C(N)=O [compound 20, [Tyr^12]Svg(12-40)] (H-YLLRKMIEIEKQEKEKQQAANNRLLLDTI-NH2; N-terminus assumed)",HEK-rCRFR1 cells rel. pot. (relative potency),rCRFR1 [1]; [9],0.90 ± 0.02
same,Emax,rCRFR1 [1],6 ± 3%
same,Kd,mCRFR2β [2],428 ± 119 nM
same,high-affinity binding to mCRFR2β,mCRFR2β [2]; N-terminal truncation by one amino acid and Glu^12 to tyrosine,completely abolished
same,Selectivity,mCRFR2β [2]; Table 3,1.63
same,HEK-mCRFR2β cells rel. pot. (relative potency),"mCRFR2β [3]; Table 4, 10 nM antagonist, cAMP production stimulated by 1 nM Svg, Svg alone = 1.00",0.80 ± 0.04
same,Emax,mCRFR2β [3]; read-out: HEK-mCRFR2β cells rel. IA (relative intrinsic activity),0.6 ± 0.2%
same,Kd,rCRFR1 [4],995 ± 337 nM
"CC[C@H](C)[C@H](NC(=O)[C@H](CC(=O)O)NC(=O)[C@H](CC(C)C)NC(=O)[C@H](CC(C)C)NC(=O)[C@H](CCCCN)NC(=O)[C@H](CCCNC(=N)N)NC(=O)[C@H](CC(N)=O)NC(=O)[C@H](CO)NC(=O)[C@H](Cc1c[nH]cn1)NC(=O)[C@H](C)NC(=O)[C@H](CCC(N)=O)NC(=O)[C@H](CCC(N)=O)NC(=O)[C@H](C)NC(=O)[C@H](CC(C)C)NC(=O)[C@H](CCC(N)=O)NC(=O)[C@H](CC(=O)O)NC(=O)[C@H](C)NC(=O)[C@H](CCCCN)NC(=O)[C@@H](NC(=O)[C@H](CCSC)NC(=O)[C@H](CCC(=O)O)NC(=O)[C@H](CC(C)C)NC(=O)[C@@H](NC(=O)[C@H](CCC(=O)O)NC(=O)[C@H](CCCNC(=N)N)NC(=O)[C@H](CC(C)C)NC(=O)[C@H](CC(C)C)NC(=O)[C@H](Cc1c[nH]cn1)NC(=O)[C@H](Cc1ccccc1)NC(=O)[C@@H](NC(=O)[C@H](CC(C)C)NC(=O)[C@H](CC(=O)O)NC(=O)[C@H](CC(C)C)NC(=O)[C@H](CO)NC(=O)[C@@H](NC(=O)[C@@H]1CCCN1C(=O)[C@@H]1CCCN1C(=O)[C@H](CCC(=O)O)NC(=O)[C@H](CCC(N)=O)NC(=O)[C@@H](N)CO)[C@@H](C)CC)[C@@H](C)O)C(C)C)[C@@H](C)O)C(=O)N[C@@H](C)C(N)=O [compound 1, oCRF, reference compound]",Emax at 0.001 µM,"rCRFR1 [1]; Table 2, 1 μM CRF antagonist alone, cAMP production in HEK-rCRFR1 cells, oCRF (1 nM) = 1.00, read-out: rCRFR1 % IA (intrinsic activity)",100%
same,rCRFR1 relative in vitro potency,"rCRFR1 [1]; Table 2, 1 μM antagonist, cAMP production stimulated by 1 nM oCRF, oCRF alone = 1.00 (lower = stronger inhibition)",1.00
same,Emax,"rCRFR1 [1]; Table 4, 1 μM CRF antagonist alone, cAMP production, oCRF = 1.00",100%
same,HEK-rCRFR1 cells rel. pot. (relative potency),rCRFR1 [1]; [9],1.00
same,Selectivity,mCRFR2β [2]; Table 1,0.002
same,Kd,"mCRFR2β [2]; Table 1, [^125I-Tyr^0]Svg as competitive ligand, recombinant mCRFR2β, HEK 293 membranes, read-out: Kd(mCRFR2β)",162 ± 37.6 nM
same,Selectivity,mCRFR2β [2]; Table 3,0.002
same,EC50,mCRFR2β [3]; agonist,11.8 ± 1.96 nM
same,Kd,"rCRFR1 [4]; membranes of HEK-rCRFR1 cells, read-out: Kd, binding to rCRFR1",0.6 ± 0.1 nM
"astressin, cyclo(30-33)[DPhe^12, Nle^21,38, Glu^30, Lys^33]h/rCRF(12-41) (peptide)",Selectivity,[5],1
same,Kd,[6],4 nM
α-helical CRF(9-41) (peptide),"% IA (intrinsic activity), cAMP production, HEK-rCRFR1 cells (relative, oCRF = 1.00)",[7],0.16
YZGPPISIDLSLELLRKMIEIEKQEKEKQQAANNRLLLDTI (125I-iodinated Tyr at position 0) [[^125I-Tyr^0]Svg],specific binding,[8],94%
